The values below are quoted from earlier work in US4916163A, “Spray-dried lactose formulation of micronized glyburide” (The Upjohn Company, priority 1985, dated 1990).

This data set has as its system Type II (adult-onset) diabetes mellitus. The note with it: in words, background.

As for `COc1ccc(Cl)cc1C(=O)NCCc1ccc(S(=O)(=O)NC(=O)NC2CCCCC2)cc1` [glyburide, N-[4-(β-[2-methoxy-5-chloro-benzamido]-ethyl)-benzenesulfonyl]-N'-cyclohexyl-urea], the “Reduction of serum glucose concentrations” value is “effective in reducing serum glucose concentrations”.
